From patent publication US20230168243A1, “METHODS FOR DIAGNOSING IMMEDIATE HYPERSENSITIVY REACTION” (Universiteit Antwerpen, priority 2020, published 2023)

Tests used:
[1] = tested on: cultured human donor mast cells (dMCs); assay: Mast cell activation test (MAT): CD63 upregulation on donor mast cells passively sensitized with patients' sera (dMCIgE+), flow cytometry; type: cell-based; conditions: for up-regulation of CD63 (% of the cells): donor MCs passively sensitized with serum containing chlorhexidine-reactive IgE antibodies, FIG. 7; for CD63 upregulated after activation / CD63 upregulation: dMCIgE+ sensitized with patients' sera, mean; for CD63 upregulated after activation: first donor, 20 min; for CD63 upregulation: second donor
Description: Human MCs were cultured as described in Cop N, et al. Influence of IL-6, IL-33, and TNF-alpha on human mast cell activation: Lessons from single cell analysis by flow cytometry. Cytometry B Clin Cytom 2018; 94:405-11. Briefly, peripheral blood mononuclear cells were isolated from 50 mL peripheral blood from healthy volunteers. CD34^+ progenitor cells were enriched using the EasySep Human CD34 Selection Kit (Stemcell Technologies, Vancouver, Canada) according to the manufacturer's instructions. Isolated CD34^+ progenitor cells were cultured in a serum-free methylcellulose-based medium (MethoCult SF H4236, Stemcell Technologies) supplemented with penicillin (100 units/mL, Life Technologies, Waltham, USA), streptomycin (100 μg/mL, Life Technologies), low-density lipoprotein (LDL, 10 μg/mL, Stemcell Technologies), 2-mercaptoethanol (55 μmol/L, Life Technologies), stem cell factor (SCF, 100 ng/mL, Miltenyi Biotec, Bergisch Gladbach, Germany), interleukin-3 (IL-3, 100 ng/mL, PeproTech, Rocky Hill, USA) and interleukin-6 (IL-6, 50 ng/mL, Miltenyi Biotec) during 4-5 weeks. Participants gave a written informed consent as approved by the Ethical Committee of the University Hospital of Antwerp (Belgium B300201316408).
Degranulation of dMC was measured by overnight passively sensitizing the cells with serum at 37° C. in a humidified CO2-incubator. Next, dMC^IgE+ were centrifuged (500 g, 5 minutes, 20° C.) and the cell pellet was resolved in pre-warmed Tyrode's buffer (Sigma-Aldrich, St. Louis, USA) at a concentration of 0.5×10^6 cells/mL. Thereafter, 100 μL of the cells were pre-incubated with IL-33 (100 ng/mL) (Peprotech) for 20 minutes on 37° C. Subsequently, these pre-incubated dMC^IgE+ were stimulated with 100 μL Tyrode's buffer as a negative control or 100 μL of CHX (Sigma-Aldrich) during 20 minutes at 37° C. The final concentrations of CHX were: 0.05, 5, 500, 50 000 ng/mL, i.e. 0.0028, 0.28, 28; 2800 nM). Reactions were stopped by placing the cells on ice and removing the supernatants (500 g, 5 minutes, 4° C.). Cells were stained with monoclonal anti-human CD117-APC (clone 104D2, BD Biosciences, Erembodegem, Belgium), CD203c-PeCy7 (clone NP4D6, eBioscience) and CD63-FITC (clone H5C6, BD Bioscience) for 20 minutes at 4° C. Finally, cells were washed and resolved in PBS with 0.1% sodium azide and measured. Degranulation of dMCs was measured as surface upregulation of the lysosomal degranulation marker CD63. The mast cell activation test is repeated on dMCs of two different volunteers.
Flow cytometric analysis was performed on a FACSCanto II flow cytometer (BD Immunocytometry Systems, San Jose, Calif.) equipped with three lasers (405 nm, 488 nm and 633 nm). Correct compensation settings for antibodies conjugated with fluorochromes were performed using BD CompBeads (BD Biosciences). Flow cytometric data were analyzed using Kaluza Analysis 1.5 software (Beckman Coulter, USA). Unstained samples were used to set a marker between positive and negative cells according to the 99th percentile. A fluorescence minus one (FMO) was used to set a marker between positive and negative cells. Mast cells were gated out as CD117 and CD203c positive cells. Results are expressed as mean and range.
Human MCs were obtained as described in Example 1. Sera from patients with perioperative anaphylaxis were selected based on the presence of sIgE against rocuronium >0.13 kUa/L and a positive skin test rocuronium. MC activation was determined as described in Example 1 and cells were stimulated during 3 and 20 minutes, preferably 20 minutes, with final concentrations of rocuronium of 1.64, 16.4, 164 and 1640 μM.
Human MCs were obtained as described in Example 1.

[2] = tested on: cultured human donor mast cells (dMCs); assay: Direct mast cell activation: CD63 upregulation on donor mast cells not passively sensitized with serum (dMCIgE-); type: cell-based; conditions: for CD63 upregulation / activation of unsensitized (unloaded) mast cells: MCs not passively sensitized with patients' serum

Row | SMILES | CD63 upregulation after stimulation ([1]; dMCIgE+ sensitized with serum of a rocuronium-allergic patient, rocuronium end concentration 164 μM, representative plot FIG. 6) [%] | CD63 upregulation after stimulation ([2]; dMCIgE- not passively sensitized, rocuronium end concentration 164 μM, representative plot FIG. 6) [%] | up-regulation of CD63 (% of the cells) [1] [%] | CD63 upregulation / activation of unsensitized (unloaded) mast cells [2] | CD63 upregulation (degranulation) ([1]; dMC sensitized with sera of patients with isolated sIgE CHX (negative skin test and BAT)) | CD63 upregulated after activation ([1]; CHX 0.05 ng/mL (0.0028 nM), printed range 1-22) [%] | CD63 upregulated after activation ([1]; CHX 5 ng/mL (0.28 nM), printed range 1-76) [%] | CD63 upregulated after activation ([1]; CHX 500 ng/mL (28 nM), printed range 6-86) [%] | CD63 upregulated after activation ([1]; CHX 50000 ng/mL (2800 nM), printed range 0-88) [%] | CD63 upregulation ([1]; CHX 0.05 ng/mL (0.0028 nM), printed range 0-21) [%] | CD63 upregulation ([1]; CHX 5 ng/mL (0.28 nM), printed range 2-44) [%] | CD63 upregulation ([1]; CHX 500 ng/mL (28 nM), printed range 3-64) [%] | CD63 upregulation ([1]; CHX 50000 ng/mL (2800 nM), printed range 0-73) [%] | CD63 upregulation / activation of unsensitized (unloaded) mast cells ([2]; listed as CHX)
1 | C=CC[N+]1([C@H]2C[C@H]3[C@@H]4CC[C@H]5C[C@H](O)[C@@H](N6CCOCC6)C[C@]5(C)[C@H]4CC[C@]3(C)[C@H]2OC(C)=O)CCCC1 [rocuronium] | 24 | 0 |  |  |  |  |  |  |  |  |  |  |  | 
2 | CCCCCCCCN=c1ccn(CCCCCCCCCCn2ccc(=NCCCCCCCC)cc2)cc1 [octenidine] |  |  | 18 | did not upregulate CD63 |  |  |  |  |  |  |  |  |  | 
3 | [H]/N=C(\N/C(=N/[H])NCCCCCCNC(=N)NC(=N)Nc1ccc(Cl)cc1)Nc1ccc(Cl)cc1 [chlorhexidine, 1:6-di(4-chlorophenyldiguanido)-hexane] |  |  | 18 | did not upregulate CD63 | no upregulation of CD63 | 1 | 10 | 57 | 31 | 2 | 7 | 30 | 45 | could not elicit activation/degranulation
